In patent US4659726A, “Novel 4,5-Bis (4-methoxyphenyl)-2-(pyrrol-2-yl) thiazoles and pharmaceutical composition containing the same” (Kanebo, Ltd., priority 1984, dated 1987):
Structures can show the parent of a compound that is named as a salt. Where two headings read alike, the source gives them in different places.

Columns and labels:
[1] = test system: Platelet aggregation (arachidonate); experiment: Platelet aggregation inhibitory activity, ex vivo after oral administration to guinea pigs, sodium arachidonate as aggregating agent; type: in vivo, Hartley strain male guinea pigs; settings: Cavia porcellus, read-out: Platelet aggregation inhibitory activity Arachidonate ED50
Protocol: (§1) Hartley strain male guinea pigs (weighing 300-350 g, one group: three animals) were fasted overnight, and to the animals were orally administered a solution or suspension of the test compounds in corn oil-10% arabic gum. […] The citrated blood thus obtained was centrifuged at 1,700 rpm for 10 minutes, and a platelet-rich plasma (PRP) was obtained from the supernatant. After isolating PRP, the remaining blood was further centrifuged at 3,000 rpm for 10 minutes, and a platelet-poor plasma (PPP) was obtained from the supernatant.
(§2) The PRP (450 μl) thus obtained was incubated at 37° C. for 3 minutes, and thereto was added 1.0 mM sodium arachidonate (50 μl) as an aggregating agent, and then the platelet aggregation thereof was measured with Platelet Aggregation Profiler® (Model PAP-3, manufactured by Bio Data Corp.) while using the PPP obtained above as a blank. As a control, as to animals to which no test compound was administered, the platelet aggregation rate was measured likewise.
(§3) The platelet aggregation inhibitory rate was calculated by the following equation. [formula]

[2] = test system: Platelet aggregation (collagen); experiment: Platelet aggregation inhibitory activity, ex vivo after oral administration to guinea pigs, collagen as aggregating agent; type: in vivo, Hartley strain male guinea pigs; settings: Cavia porcellus, read-out: Platelet aggregation inhibitory activity Collagen ED50
Protocol: as §1, §2, §3
Moreover, the above method was repeated except that 100 μg/ml collagen suspension (50 μl) was used as an aggregating agent instead of sodium arachidonate.

in vivo = settings: mouse, oral, ddy male mice, deaths counted at 10 days, Weil method, read-out: Acute toxicity LD50
Excerpt: ddy male mice (weighing 18-23 g, one group: 5 animals) were fasted overnight, and thereto was orally administered a suspension of the test compounds in 1% arabic gum solution.

[3] = oral, guinea pig, blood collected after 3 hours, 1.0 mM sodium arachidonate (50 μl), 50% inhibitory rate
[4] = oral, guinea pig, blood collected after 3 hours, 100 μg/ml collagen suspension (50 μl), 50% inhibitory rate

Compound	ED50 ([1]; po, 3 h) [mg/kg]	ED50 ([2]; po, 3 h) [mg/kg]	LD50 at 240 h (in vivo) [mg/kg]	ED50 [1, 3] [mg/kg]	ED50 [2, 4] [mg/kg]
CC(=O)Oc1ccccc1C(=O)O [Aspirin, reference compound]	38.2	58.9	1060	–	–
COc1ccc(-c2nc(C(F)(F)F)sc2-c2ccc(OC)cc2)cc1 [Compd. A, 4,5-bis(4-methoxyphenyl)-2-trifluoromethylthiazole, reference compound]	–	–	> 3000	0.54	1.29
COc1ccc(-c2nc(-c3ccc(F)cc3)sc2-c2ccc(OC)cc2)cc1 [Compd. B, 4,5-bis(4-methoxyphenyl)-2-(4-fluorophenyl)thiazole, reference compound]	–	–	> 3000	1.24	1.2
COc1ccc(-c2nc(-c3cccn3C)[nH]c2-c2ccc(OC)cc2)cc1 [Compd. C, 4,5-bis(4-methoxyphenyl)-2-(1-methylpyrrol-2-yl)imidazole, reference compound]	–	–	> 3000	1.21	2.51
CCn1cccc1-c1nc(-c2ccc(OC)cc2)c(-c2ccc(OC)cc2)s1 [Ex. 1, 4,5-Bis(4-methoxyphenyl)-2-(1-ethylpyrrol-2-yl)-thiazole]	–	–	> 3000	0.47	0.91
COc1ccc(-c2nc(-c3cccn3C(C)C)sc2-c2ccc(OC)cc2)cc1 [Ex. 2, 4,5-Bis(4-methoxyphenyl)-2-(1-isopropylpyrrol-2-yl)thiazole]	–	–	> 3000	0.29	0.63
CCCn1cccc1-c1nc(-c2ccc(OC)cc2)c(-c2ccc(OC)cc2)s1 [Ex. 3, 4,5-Bis(4-methoxyphenyl)-2-(1-n-propylpyrrol-2-yl)thiazole]	–	–	> 3000	0.32	0.52
COc1ccc(-c2nc(-c3cccn3CC(C)C)sc2-c2ccc(OC)cc2)cc1 [Ex. 4, 4,5-Bis(4-methoxyphenyl)-2-(1-isobutylpyrrol-2-yl)thiazole]	–	–	> 3000	0.41	0.78
C=CCn1cccc1-c1nc(-c2ccc(OC)cc2)c(-c2ccc(OC)cc2)s1 [Ex. 5, 4,5-Bis(4-methoxyphenyl)-2-(1-allylpyrrol-2-yl)-thiazole]	–	–	> 3000	0.4	0.55
C#CCn1cccc1-c1nc(-c2ccc(OC)cc2)c(-c2ccc(OC)cc2)s1 [Ex. 6, 4,5-Bis(4-methoxyphenyl)-2-(1-propargylpyrrol-2-yl)thiazole]	–	–	> 3000	0.22	0.92
COc1ccc(-c2nc(-c3cccn3CC(F)(F)F)sc2-c2ccc(OC)cc2)cc1 [Ex. 7, 4,5-Bis(4-methoxyphenyl)-2-[1-(2,2,2-trifluoroethyl)pyrrol-2-yl]thiazole]	–	–	> 3000	0.47	0.51
COC(=O)Cn1cccc1-c1nc(-c2ccc(OC)cc2)c(-c2ccc(OC)cc2)s1 [Ex. 13, methyl 2-[4,5-bis(4-methoxyphenyl)thiazol-2-yl]pyrrole-1-acetate]	–	–	> 3000	0.26	0.89
CCOC(=O)Cn1cccc1-c1nc(-c2ccc(OC)cc2)c(-c2ccc(OC)cc2)s1 [Ex. 14, ethyl 2-[4,5-bis(4-methoxyphenyl)thiazol-2-yl]pyrrole-1-acetate]	–	–	> 3000	0.088	0.19
CCCOC(=O)Cn1cccc1-c1nc(-c2ccc(OC)cc2)c(-c2ccc(OC)cc2)s1 [Ex. 15, n-Propyl 2-[4,5-bis(4-methoxyphenyl)thiazol-2-yl]-pyrrole-1-acetate]	–	–	> 3000	0.072	0.11
COc1ccc(-c2nc(-c3cccn3CC(=O)OC(C)C)sc2-c2ccc(OC)cc2)cc1 [Ex. 16, isopropyl 2-[4,5-bis(4-methoxyphenyl)thiazol-2-yl]pyrrole-1-acetate]	–	–	> 3000	0.061	0.11
Clc1ccccc1CN1CCc2sccc2C1 [Ticlopidine.HCl, Ticlopidine hydrochloride, reference compound]	–	–	–	> 300	300
